Test results taken from article PMC10283505, “CVM-1118 (foslinanib), a 2-phenyl-4-quinolone derivative, promotes apoptosis and inhibits vasculogenic mimicry via targeting TRAP1” (Pathology and Oncology Research, 2023).

Columns and labels:
Smad2/P-Smad2 = assay: Western blot of P-Smad2/Smad2; assay type: cell-based, human; conditions: C8161, 10 nM, 24 h, relative to β-actin, against control
Description: Cells at 80% confluence were rinsed with PBS, harvested by scrapping into a modified RIPA buffer plus protease inhibitor cocktail using 100 μL buffer per 1 × 10^6 cells. After sonication and centrifugation, the protein concentrations in the supernatants were determined using a BCA assay (Thermo Fisher Scientific). […] Nodal was detected using a mouse monoclonal anti-Nodal antibody (sc-373910; Santa Cruz; 1 μg/ml in 20 mM Tris/150 mM NaCl/0.1% [w/v] Tween 20, pH 7.4 [TBST] plus 5% BSA) followed by an anti-mouse plus horseradish peroxidase (HRP) secondary antibody (NXA931; GE Healthcare; 1 μg/ml in TBST plus 5% BSA) and enhanced chemiluminescence (ECL; GE Healthcare). Smad2 was detected using a rabbit polyclonal anti-Smad2/3 antibody (07-408; Millipore; 1 μg/ml in TBST plus 5% BSA) followed by an anti-rabbit plus HRP secondary antibody (NA934V; GE Healthcare; 1 μg/ml in TBST plus 5% BSA) and ECL. […] To assess relative changes in protein expression, the exposed films were digitized using a ChemiDoc XRS imager (Bio-Rad Laboratories) and the relative amount of protein determined against the untreated control cells normalized to a value of 1.0 using the imager’s Quantity One software package (Bio-Rad Laboratories) and corrected for loading of protein into each lane against the β-actin protein measured in the control lane.

SNB-75 = assay: NCI 60 cytotoxicity screening; assay type: cell-based; conditions: Homo sapiens; SNB-75, CNS
HOP-62 = assay: NCI 60 cytotoxicity screening; assay type: cell-based; conditions: Homo sapiens; HOP-62, NSCLC
HCT-116 = assay: NCI 60 cytotoxicity screening; assay type: cell-based; conditions: Homo sapiens
Catenin α2 = biological target: T1, Catenin α2 (Homo sapiens, UniProt P26232); assay: Surface plasmon resonance (Biacore); assay type: binding; conditions: Catenin α2, SPR
T1 sequence (P26232 1-953): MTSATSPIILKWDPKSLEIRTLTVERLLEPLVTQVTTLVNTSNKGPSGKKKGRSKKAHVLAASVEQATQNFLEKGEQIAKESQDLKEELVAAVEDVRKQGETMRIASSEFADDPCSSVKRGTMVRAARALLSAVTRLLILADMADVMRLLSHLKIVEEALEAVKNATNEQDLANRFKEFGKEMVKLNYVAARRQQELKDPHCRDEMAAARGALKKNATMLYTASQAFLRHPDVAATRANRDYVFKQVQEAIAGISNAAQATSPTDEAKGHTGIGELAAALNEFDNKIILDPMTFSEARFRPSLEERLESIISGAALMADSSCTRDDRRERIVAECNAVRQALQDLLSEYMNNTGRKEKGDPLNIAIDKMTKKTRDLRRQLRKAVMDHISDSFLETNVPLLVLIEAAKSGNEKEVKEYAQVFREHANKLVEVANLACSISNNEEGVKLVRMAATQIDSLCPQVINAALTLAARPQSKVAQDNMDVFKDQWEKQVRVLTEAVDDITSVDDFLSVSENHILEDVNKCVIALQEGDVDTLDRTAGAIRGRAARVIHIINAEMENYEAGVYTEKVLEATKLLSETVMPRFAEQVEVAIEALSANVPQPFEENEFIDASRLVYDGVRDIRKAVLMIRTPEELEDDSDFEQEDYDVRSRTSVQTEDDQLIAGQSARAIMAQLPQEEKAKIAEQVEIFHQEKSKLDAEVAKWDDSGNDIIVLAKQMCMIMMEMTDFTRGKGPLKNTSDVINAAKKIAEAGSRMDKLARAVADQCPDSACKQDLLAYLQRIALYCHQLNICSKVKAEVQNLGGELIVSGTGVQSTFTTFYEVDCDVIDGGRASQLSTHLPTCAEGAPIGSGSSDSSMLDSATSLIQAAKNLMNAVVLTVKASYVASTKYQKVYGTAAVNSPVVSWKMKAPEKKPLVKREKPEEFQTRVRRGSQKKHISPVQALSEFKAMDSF

DU-145 = assay: NCI 60 cytotoxicity screening; assay type: cell-based; conditions: Homo sapiens; DU-145, Prostate
A549/ATCC = assay: NCI 60 cytotoxicity screening; assay type: cell-based; conditions: Homo sapiens, NSCLC
NCI-H460 = assay: NCI 60 cytotoxicity screening; assay type: cell-based; conditions: Homo sapiens; NCI-H460, NSCLC

| SMILES | reduction in the ratio of P-Smad2 to Smad2 protein level (Smad2/P-Smad2) [%] | GI50 (SNB-75) [nM] | GI50 (HOP-62) [nM] | GI50 (HCT-116; HCT-116, Colon) [nM] | IC50 (HCT-116; HCT-116, refers to Supplementary Table S2) [nM] | Association (ka) (Catenin α2) | Dissociation (kd) (Catenin α2) | KD (kd/ka) (Catenin α2) | GI50 (DU-145) [nM] | GI50 (A549/ATCC) [nM] | GI50 (NCI-H460) [nM] |
| --- | --- | --- | --- | --- | --- | --- | --- | --- | --- | --- | --- |
| COc1ccc2[nH]c(-c3cccc(F)c3)cc(=O)c2c1OP(=O)(O)O [CVM-1118] | 76 | – | – | – | – | – | – | – | – | – | – |
| COc1ccc2[nH]c(-c3cccc(F)c3)cc(=O)c2c1O [CVM-1125] | – | 15 | 49.6 | 33 | 33 | No dose dependent interaction | No dose dependent interaction | No dose dependent interaction | 21.1 | 41.4 | 32.8 |
